The results in this text go back to patent publication US20240391931A1 (Bristol-Myers Squibb Company, priority 2021, published 2024).

For orientation: pIC50 means the negative decadic logarithm of the IC50, by convention in mol/L. For orientation: pEC50 means the negative decadic logarithm of the EC50, by convention in mol/L.

pEC50, pIC50: −log10 of the molar value.

For test [1], the target named is HER2YVMA (Homo sapiens, UniProt P04626, INS775YVMA). Nature of the test: Enzymatic assay HER2YVMA (method b). Type of test: biochemical. Also on record: purchased Viva biotech, Shanghai, China custom purification. Particulars: [HER2YVMA]=5 nM, [ATP]=25 μM, [Peptide 22]=1 μM. Here is the method:
(§1) A 2× stock solution of HER2 WT (ERBB2 0108-0000-1; ProQinase, Freiburg, Germany) corresponding to method a, was prepared as described below. Alternatively, a 2× stock solution of HER2YVMA (custom purification; Viva biotech, Shanghai, China) corresponding to method b, was prepared as described below. For method c, a 2× stock of EGFR (ERBB1 PR7295B, Thermo Fisher, Carlsbad, CA) was prepared as described below. All 2× solutions were prepared in buffer containing 50 mM HEPES, pH 7.5, 10 mM MnCl2, MgCl2, 0.005% Tween 20, 1 mM TCEP. 25 ul of 2× enzyme solution was added to a Seahorse low volume 384-well polypropylene assay plate (201288-100, Seahorse Bioscience, Chicopee, MA) containing 1 μl of compound serially diluted in 50% DMSO. To initiate the reaction, 25 μl of solution containing 2× final concentration of ATP and ProfilerPro Peptide 22 (760366, Perkin Elmer Hopkinton, MA) was added to each well. The reactions were separated on an LC3000 (Caliper Life Sciences) or a LabChip EZReader (Perkin Elmer) in kinetic mode.
(§2) At the conclusion of each assay, the data were exported from the instrument as a .rda file (LC3000) and processed in proprietary software, EZReviewer, which determines the percent of substrate converted to product within a given cycle as (P/P+S)*100 by measuring the amplitude of substrate and product peaks. Cycle time varied with amount of compounds tested between 8 and 12 cycles. Initial velocity (0-3600 s) from each reaction was determined from the slope of a plot of percent conversion at each cycle versus time (seconds). Percent inhibition was determined by dividing the slope of each reaction by the uninhibited control using 100*(1-(x/uninhibited control)). IC50 estimates were obtained by plotting the concentration of inhibitor versus percent inhibition in GraphPad Prism (GraphPad Software, San Diego, CA) using log[inhibitor] versus Response (Variable Slope Model); Y=Min+((Max-Min)/(1+((IC50/x)^Hillslope)))
(§3) • a) [HER2 WT]=12.5 nM, [ATP]=25 μM, [Peptide 22]=1 μM (ATP KMapp˜25 μM) • b) [HER2YVMA]=5 nM, [ATP]=25 μM, [Peptide 22]=1 μM (ATP KMapp˜15 μM) • c) [EGFR WT]=2 nM, [ATP]=1 mM, [Peptide 22]=1 μM (ATP KMapp˜25 μM)

Test [2] concerns the target EGFR (Homo sapiens, UniProt P00533). As to the kind of experiment: EGFR signaling (pEGFR Tyr1068/total EGFR MSD) in A431 cells. More on the design: endogenous in cells; host or cells: A431, N87. In kind it is cell-based. The settings on record: for pEC50: A431 cells, read-out: A431 pEGFR EC50; for Selectivity A431 EC50/BT474 EC50: ratio A431 pEGFR EC50 to BT474 pHER2 EC50. Here is the method: (§4) In addition to the engineered cell lines, the following cell lines were used: BT474 (human breast carcinoma), N87 (human gastric carcinoma), NCI-H1781 (human lung adenocarcinoma), and A431 (human epidermoid carcinoma); all cell lines were obtained from the American Type Culture Collection (ATCC, Manassas, VA). NCI-H1781 were grown in complete RPMI 1640 (Life Technologies, Carlsbad, CA) supplemented with 15% fetal bovine serum (FBS, Life Technologies, Carlsbad, CA) and 1% Penicillin-Streptomycin (P/S, Life Technologies, Carlsbad, CA). N87 cells were grown in complete RPMI 1640 supplemented with 10% FBS and 1% P/S. BT474 and A431 cells were grown in DMEM (Life Technologies, Carlsbad, CA) supplemented with 10% FBS and 1% P/S. All cells were maintained and propagated in a humidified 5% CO2 incubator at 37° C.
A431 Cells were plated in 96-well tissue-culture treated plates in full media for 6 h, then starved with media containing 0.1% FBS for overnight. Media was replaced with low serum media (1% FBS) containing compound at 10, 3.3, 1.1, 0.37, 0.12, 0.041, 0.014, 0.005 μM or DMSO control (0.1%). Cells were incubated for 1.5 hr, then stimulated with 100 ng/mL human EGF (PeproTech, Rocky Hill, NJ) for 10 minutes. Cells were washed with cold PBS, and lysed for 30 min on ice in complete MSD lysis buffer (prepared as described in HER2 Signaling Method); lysates were stored at −70° C. until further analysis. EGFR signaling was evaluated using phospho (Tyr 1068)/total EGFR whole cell lysate kit (Meso-Scale Discovery, Gaithersburg, MD). The phospho EGFR signal was normalized to total EGFR for each sample; results are reported as % DMSO control. The normalized data was fitted using a sigmoidal curve analysis program (Graph Pad Prism version 6) with variable Hill slope to determine EC50 values. The results are provided in Table 4, under column titled “A431-pEGFR EC50”.

In test [3] the target is T1, HER2 WT (Homo sapiens, UniProt P04626).
T1 construct: purchased ProQinase, Freiburg, Germany ERBB2 0108-0000-1
T1 sequence (P04626 23-1255): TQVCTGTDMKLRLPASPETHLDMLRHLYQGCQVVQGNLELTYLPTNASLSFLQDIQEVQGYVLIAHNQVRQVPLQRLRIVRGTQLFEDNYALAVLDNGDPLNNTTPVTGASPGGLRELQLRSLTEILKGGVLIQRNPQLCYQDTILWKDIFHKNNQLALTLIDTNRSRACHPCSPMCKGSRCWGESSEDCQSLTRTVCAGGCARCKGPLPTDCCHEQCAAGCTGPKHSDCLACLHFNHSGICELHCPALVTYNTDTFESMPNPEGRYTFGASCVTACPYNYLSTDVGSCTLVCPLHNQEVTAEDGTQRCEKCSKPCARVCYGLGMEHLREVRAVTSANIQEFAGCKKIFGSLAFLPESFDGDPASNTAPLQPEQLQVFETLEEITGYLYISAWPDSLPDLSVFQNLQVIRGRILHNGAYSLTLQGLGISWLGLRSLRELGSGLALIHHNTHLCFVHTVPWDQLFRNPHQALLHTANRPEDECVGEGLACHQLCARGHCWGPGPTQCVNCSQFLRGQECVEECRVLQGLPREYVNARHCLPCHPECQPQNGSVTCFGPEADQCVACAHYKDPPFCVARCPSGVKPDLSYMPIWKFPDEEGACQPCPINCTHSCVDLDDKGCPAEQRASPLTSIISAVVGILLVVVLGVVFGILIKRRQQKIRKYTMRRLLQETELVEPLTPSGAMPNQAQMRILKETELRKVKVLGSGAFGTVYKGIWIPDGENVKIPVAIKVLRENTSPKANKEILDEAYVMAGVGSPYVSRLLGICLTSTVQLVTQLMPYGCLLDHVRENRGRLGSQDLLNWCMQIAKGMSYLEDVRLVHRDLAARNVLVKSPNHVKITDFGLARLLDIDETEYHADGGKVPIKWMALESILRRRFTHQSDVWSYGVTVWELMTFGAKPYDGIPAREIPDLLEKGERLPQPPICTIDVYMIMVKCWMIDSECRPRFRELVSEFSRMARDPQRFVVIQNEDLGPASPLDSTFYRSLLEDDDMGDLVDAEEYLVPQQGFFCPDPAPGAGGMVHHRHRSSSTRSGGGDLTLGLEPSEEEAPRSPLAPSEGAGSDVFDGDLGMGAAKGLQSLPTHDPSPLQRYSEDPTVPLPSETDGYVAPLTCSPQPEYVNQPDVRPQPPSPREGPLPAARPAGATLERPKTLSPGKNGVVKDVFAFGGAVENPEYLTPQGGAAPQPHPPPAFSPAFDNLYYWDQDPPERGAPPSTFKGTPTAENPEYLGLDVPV
As to the kind of experiment: Enzymatic assay HER2 WT (method a). In kind it is biochemical. The settings on record: [HER2 WT]=12.5 nM, [ATP]=25 μM, [Peptide 22]=1 μM. As for the experimental part: as §1, §2, §3

The target in test [4] is T2, EGFR WT (Homo sapiens, UniProt P00533).
T2 construct: purchased Thermo Fisher, Carlsbad, CA ERBB1 PR7295B
Nature of the test: Enzymatic assay EGFR WT (method c). Type of test: biochemical. The settings on record: [EGFR WT]=2 nM, [ATP]=1 mM, [Peptide 22]=1 μM. As for the experimental part: as §1, §2, §3

The target of test [5] is T3, HER2 wildtype (WT) protein (Homo sapiens, UniProt P04626).
T3 construct: BT474 and N87 cell lines which endogenously overexpress the HER2 wildtype (WT) protein; endogenous in cells; host or cells: BT474, N87
T3 sequence (P04626 23-1255): as above
Nature of the test: HER2 signaling (pHER2 Tyr1248/total HER2 MSD) in BT474 cells. Type of test: cell-based. The settings on record: 1.5 hr compound, 1% FBS. As for the experimental part: as §4
HER2 signaling was assessed in BT474 and N87 cell lines which endogenously overexpress the HER2 wildtype (WT) protein, in NCI-H1781 cells which endogenously expresses a HER2 mutant protein containing a VC insertion in the kinase domain (HER2VC or G776delinsVC), and in engineered cell lines transduced to express the Her2 mutant protein containing the YVMA insertion (Hek293-HER2YVMA and BEAS2B-HER2YVMA).
BT474, N87, and NCI-H1781 were plated in 96-well tissue-culture treated plates (Corning Costar, Sigma-Aldrich) in full media and incubated overnight. Hek293-HER2YVMA and BEAS2B-HER2YVMA cells were plated in 96-well poly-D-lysine treated plates (BD Bioscience, San Jose, CA). For treatment with test compounds, the media was replaced with corresponding low serum media (1% FBS) containing test compound at 1.1, 0.37, 0.12, 0.041, 0.014, 0.005, 0.0014, 0.0005 μM or DMSO control (0.1%). Cells were incubated with compound for 1.5 hr at 37° C. After compound treatment, the media was removed and cells were lysed for 30 min on ice in complete MSD lysis buffer (prepared using MSD base lysis buffer (Meso-Scale Discovery) supplemented with cOmplete, EDTA-free Protease inhibitor cocktail (Roche), Phosphatase Inhibitor Cocktails 2 and 3 (Sigma-Aldrich), and 1 mM PMSF (Sigma-Aldrich)). Lysates were stored at −70° C. until further analysis.
HER2 signaling was evaluated using phospho (Tyr1248)/total ErbB2 whole cell lysate MSD plates (Meso-Scale Discovery, Gaithersburg, MD). The phospho HER2 signal was normalized to total HER2 for each sample; results are reported as % DMSO control. The normalized data was fitted using a sigmoidal curve analysis program (Graph Pad Prism version 6) with variable Hill slope to determine EC50 values.
The HER2 signaling results are provided in Table 4, under columns titled “BT474-pHER2 EC50”, “N87-pHER2 EC50”, and “NCI-H1781-pHER2 EC50”. Hek293-HER2YVMA ins fall under the heading “HEKYVMA-pHER2 EC50”, Ba/F3 HER2YVMA fall under the heading “Ba/F3 YVMA-pHER2 EC50” and BEAS2B-HER2YVMA fall under the heading “BEAS2B YVMA-pHER2 EC50”.

HER2YVMA, sequence (P04626 with tags, fused parts or gaps INS775YVMA): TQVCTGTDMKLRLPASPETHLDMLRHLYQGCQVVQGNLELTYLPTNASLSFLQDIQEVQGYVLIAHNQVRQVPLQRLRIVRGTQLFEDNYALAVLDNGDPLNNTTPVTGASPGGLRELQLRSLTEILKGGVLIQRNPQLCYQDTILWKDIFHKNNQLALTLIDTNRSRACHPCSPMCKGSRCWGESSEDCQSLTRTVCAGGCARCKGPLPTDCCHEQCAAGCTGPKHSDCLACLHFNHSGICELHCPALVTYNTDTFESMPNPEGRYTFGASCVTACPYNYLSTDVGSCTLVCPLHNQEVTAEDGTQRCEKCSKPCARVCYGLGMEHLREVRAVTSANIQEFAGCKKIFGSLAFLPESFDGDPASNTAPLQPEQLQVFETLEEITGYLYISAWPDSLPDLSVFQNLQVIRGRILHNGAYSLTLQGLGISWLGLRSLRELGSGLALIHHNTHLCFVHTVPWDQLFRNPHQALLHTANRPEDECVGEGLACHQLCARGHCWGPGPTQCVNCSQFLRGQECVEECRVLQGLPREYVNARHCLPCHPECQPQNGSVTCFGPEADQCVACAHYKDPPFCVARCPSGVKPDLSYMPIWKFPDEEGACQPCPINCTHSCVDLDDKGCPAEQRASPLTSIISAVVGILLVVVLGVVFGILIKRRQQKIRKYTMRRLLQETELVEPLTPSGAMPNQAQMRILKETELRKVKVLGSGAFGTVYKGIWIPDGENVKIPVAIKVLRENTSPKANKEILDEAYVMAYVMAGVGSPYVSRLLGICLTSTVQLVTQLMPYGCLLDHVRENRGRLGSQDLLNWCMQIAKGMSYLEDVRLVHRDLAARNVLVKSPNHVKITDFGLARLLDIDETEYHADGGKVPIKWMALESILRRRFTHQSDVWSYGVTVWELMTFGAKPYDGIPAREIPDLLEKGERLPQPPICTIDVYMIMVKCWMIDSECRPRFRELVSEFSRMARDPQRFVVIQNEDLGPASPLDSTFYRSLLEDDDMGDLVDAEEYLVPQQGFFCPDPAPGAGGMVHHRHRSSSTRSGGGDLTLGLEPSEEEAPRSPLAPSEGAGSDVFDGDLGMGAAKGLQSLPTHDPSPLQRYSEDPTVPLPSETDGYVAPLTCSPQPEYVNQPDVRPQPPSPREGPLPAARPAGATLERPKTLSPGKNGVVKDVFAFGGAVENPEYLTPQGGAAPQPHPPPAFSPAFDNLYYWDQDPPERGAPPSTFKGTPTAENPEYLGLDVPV
EGFR, sequence (P00533 25-1210): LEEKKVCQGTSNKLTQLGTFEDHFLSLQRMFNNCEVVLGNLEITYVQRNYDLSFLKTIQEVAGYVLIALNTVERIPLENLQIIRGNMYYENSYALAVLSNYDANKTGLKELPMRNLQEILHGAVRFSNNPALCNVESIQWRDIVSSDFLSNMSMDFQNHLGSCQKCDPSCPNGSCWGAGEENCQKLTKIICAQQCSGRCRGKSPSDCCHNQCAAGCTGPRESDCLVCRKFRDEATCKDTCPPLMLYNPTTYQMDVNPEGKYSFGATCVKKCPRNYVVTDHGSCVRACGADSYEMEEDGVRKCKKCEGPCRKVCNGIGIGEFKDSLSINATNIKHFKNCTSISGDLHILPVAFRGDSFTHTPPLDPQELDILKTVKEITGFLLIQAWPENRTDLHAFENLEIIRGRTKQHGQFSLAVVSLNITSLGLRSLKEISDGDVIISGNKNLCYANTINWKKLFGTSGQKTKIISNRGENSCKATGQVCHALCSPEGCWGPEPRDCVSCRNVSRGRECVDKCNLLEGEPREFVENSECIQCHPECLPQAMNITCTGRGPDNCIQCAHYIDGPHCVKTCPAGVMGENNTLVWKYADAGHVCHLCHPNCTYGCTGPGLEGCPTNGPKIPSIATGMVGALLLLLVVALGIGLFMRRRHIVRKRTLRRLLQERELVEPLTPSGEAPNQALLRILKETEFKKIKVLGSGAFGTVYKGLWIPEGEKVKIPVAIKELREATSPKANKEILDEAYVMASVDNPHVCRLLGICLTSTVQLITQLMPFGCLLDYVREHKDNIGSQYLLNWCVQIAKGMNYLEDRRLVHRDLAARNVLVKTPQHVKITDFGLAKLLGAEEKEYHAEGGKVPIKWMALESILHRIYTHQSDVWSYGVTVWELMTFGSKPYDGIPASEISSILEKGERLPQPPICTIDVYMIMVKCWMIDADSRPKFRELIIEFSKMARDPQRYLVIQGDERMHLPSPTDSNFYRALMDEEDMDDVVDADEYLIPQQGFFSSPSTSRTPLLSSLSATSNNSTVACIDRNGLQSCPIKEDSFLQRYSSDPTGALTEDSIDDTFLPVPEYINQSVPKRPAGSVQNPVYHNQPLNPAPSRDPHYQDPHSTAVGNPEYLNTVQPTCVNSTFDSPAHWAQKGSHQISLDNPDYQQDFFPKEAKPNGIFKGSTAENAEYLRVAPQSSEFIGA

As to `Cc1ccc(Oc2ccc(Nc3ncnc4sc5c(c34)CCN(C(=O)/C=C/CN3CC4CC(C4)C3)C5)cc2C)cn1` [Compound 36], the pIC50 in test [1] was above 7.00; in test [3] it was above 7.00; in test [4], 5.00 to 6.00. Moreover, the negative logarithm of the EC50 (pEC50) in test [2] and in test [5] was above 7.00 in each case. Also, the “Selectivity A431 EC50/BT474 EC50” value in test [2] was “D (D: ≥ 5 and < 10)”.
`Cc1ccc(Oc2ccc(Nc3ncnc4sc5c(c34)CCN(C(=O)/C=C/CN3CCOC[C@@H]3C)C5)cc2C)cn1` [Compound 32]: the pIC50 in test [1] is 6.00 to 7.00; in test [3], above 7.00; in test [4], below 5.00. Moreover, the pEC50 in test [2] is 6.00 to 7.00; in test [5], above 7.00. For the same compound, in test [2], the “Selectivity A431 EC50/BT474 EC50” value was “B (B: ≥ 20 and < 100)”.
With `Cc1ccc(Oc2ccc(Nc3ncnc4sc5c(c34)CCN(C(=O)/C=C/CN3CCOCC3(C)C)C5)cc2C)cn1` [Compound 29], the figures for the negative-log IC50 (pIC50) in test [1], in test [3] and in test [4] were above 7.00, above 7.00 and below 5.00, respectively. Further, the negative-log EC50 (pEC50) in test [2] and in test [5] was above 7.00 throughout. The “Selectivity A431 EC50/BT474 EC50” value in test [2] was “C (C: ≥ 10 and < 20)”.
As to `Cc1ccc(Oc2ccc(Nc3ncnc4sc5c(c34)CCN(C(=O)/C=C/CN3CCN4CCC3CC4)C5)cc2C)cn1` [Compound 116], the pIC50 in test [1] is 5.00 to 6.00; in test [3], 5.00 to 6.00; in test [4], below 5.00.
As for `Cc1ccc(Oc2ccc(Nc3ncnc4sc5c(c34)CCN(C(=O)/C=C/CN3CC4CCC(C4)C3)C5)cc2C)cn1` [Compound 27], in test [2], the pEC50 is above 7.00; the “Selectivity A431 EC50/BT474 EC50” value is “B (B: ≥ 20 and < 100)”. Further, the negative logarithm of the IC50 (pIC50) in test [4] was 5.00 to 6.00.
With `C=CC(=O)N1CCc2c(sc3ncnc(Nc4ccc(Oc5ccc6ncnn6c5)c(C)c4)c23)C1` [Compound 2, 1-(4-((4-([1,2,4]triazolo[1,5-a]pyridin-6-yloxy)-3-methylphenyl)amino)-5,8-dihydropyrido[4′,3′:4,5]thieno[2,3-d]pyrimidin-7(6H)-yl)prop-2-en-1-one], the negative logarithm of the IC50 (pIC50) in test [1] was above 7.00; in test [3], above 7.00; in test [4] it was 5.00 to 6.00.
For `Cc1cc(Nc2ncnc3sc4c(c23)CCN(C(=O)/C=C/CN2CCOC[C@@H]2C)C4)ccc1Oc1ccc2ncnn2c1` [Compound 79], the figures for the negative logarithm of the IC50 (pIC50) in test [1], in test [3] and in test [4] were 6.00 to 7.00, 6.00 to 7.00 and below 5.00, respectively.
Take `C[C@H]1COCCN1C/C=C/C(=O)N1CCc2c(sc3ncnc(Nc4ccc(Oc5ccc6ncnn6c5)c(Cl)c4)c23)C1` [Compound 90]: the pIC50 is 6.00 to 7.00 in test [1], 6.00 to 7.00 in test [3] and below 5.00 in test [4].
On to `Cc1ccc(Oc2ccc(Nc3ncnc4sc5c(c34)CCN(C(=O)/C=C/CN3CCOC(C)(C)C3)C5)cc2C)cn1` [Compound 28], for which the negative-log IC50 (pIC50) in test [1] was 6.00 to 7.00; in test [3], above 7.00; in test [4], below 5.00. In addition, the negative logarithm of the EC50 (pEC50) in test [2] and in test [5] was above 7.00 throughout. The “Selectivity A431 EC50/BT474 EC50” value in test [2] is “C (C: ≥ 10 and < 20)”.
Take `Cc1ccc(Oc2ccc(Nc3ncnc4sc5c(c34)CCN(C(=O)/C=C/CN3CCOC4(CCC4)C3)C5)cc2C)cn1` [Compound 30]: the pIC50 in test [1] is 6.00 to 7.00; in test [3], above 7.00; in test [4] it was below 5.00. In addition, the pEC50 is 6.00 to 7.00 in test [2] and above 7.00 in test [5]. For the same compound, in test [2], the “Selectivity A431 EC50/BT474 EC50” value was “A (A: ≥100)”.
For `Cc1ccc(Oc2ccc(Nc3ncnc4sc5c(c34)CCN(C(=O)/C=C/CN3CCOCC34CCC4)C5)cc2C)cn1` [Compound 31], the pIC50 was 6.00 to 7.00 in test [1], above 7.00 in test [3] and below 5.00 in test [4]. Moreover, the negative-log EC50 (pEC50) in test [2] was 6.00 to 7.00; in test [5], above 7.00. Moreover, in test [2], the “Selectivity A431 EC50/BT474 EC50” value was “D (D: ≥ 5 and < 10)”.
